Experimental data reported in patent publication US8586579B2, “Anellated pyridine compounds” (Hoffmann-La Roche Inc., priority 2010, dated 2013).
Where two headings read alike, the source gives them in different places.

What was measured:
human 5-HT2A receptor = human 5-HT2A receptor (Homo sapiens (Human), UniProt P28223); test: Radioligand binding assay, [3H]-ketanserin, human 5-HT2A receptor
Summary of the method: (§1)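 Membranes from transiently transfected HEK293 EBNA cells were incubated 1 h at RT with ten compound concentrations (10 μM-0.1 nM) and radioligand: 0.5 nM [3H]-spiperone for D3 (Tris/NaCl/Mg/Ca buffer, pH 7.4) or 1.1 nM [3H]-ketanserin for 5-HT2A (Tris/MgCl2/EGTA, pH 7.4).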

human D3 receptor = human D3 receptor (Homo sapiens (Human), UniProt P35462); test: Radioligand binding assay, [3H]-spiperone, human D3 receptor; conditions: membranes of HEK293 EBNA cells expressing human D3; 0.5 nM [3H]-spiperone
human D3 receptor, sequence (P35462 whole entry): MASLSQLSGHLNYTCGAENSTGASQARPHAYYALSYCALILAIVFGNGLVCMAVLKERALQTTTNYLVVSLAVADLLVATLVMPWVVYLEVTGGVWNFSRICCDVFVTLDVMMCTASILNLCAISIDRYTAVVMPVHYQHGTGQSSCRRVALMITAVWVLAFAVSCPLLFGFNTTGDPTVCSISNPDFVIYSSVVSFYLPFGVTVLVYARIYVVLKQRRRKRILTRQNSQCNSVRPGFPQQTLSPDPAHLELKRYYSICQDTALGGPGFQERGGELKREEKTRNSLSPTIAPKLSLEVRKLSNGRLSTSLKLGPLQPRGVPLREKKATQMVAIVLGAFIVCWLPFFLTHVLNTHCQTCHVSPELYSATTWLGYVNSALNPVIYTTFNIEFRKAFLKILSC
Summary of the method: as §1

human D2 receptor = human D2 receptor (Homo sapiens (Human), UniProt P14416); test: Radioligand binding assay, [3H]-spiperone, human D2 receptor; conditions: membranes of HEK293 EBNA cells expressing human D2; 0.7 nM [3H]-spiperone
human D2 receptor, sequence (P14416 whole entry): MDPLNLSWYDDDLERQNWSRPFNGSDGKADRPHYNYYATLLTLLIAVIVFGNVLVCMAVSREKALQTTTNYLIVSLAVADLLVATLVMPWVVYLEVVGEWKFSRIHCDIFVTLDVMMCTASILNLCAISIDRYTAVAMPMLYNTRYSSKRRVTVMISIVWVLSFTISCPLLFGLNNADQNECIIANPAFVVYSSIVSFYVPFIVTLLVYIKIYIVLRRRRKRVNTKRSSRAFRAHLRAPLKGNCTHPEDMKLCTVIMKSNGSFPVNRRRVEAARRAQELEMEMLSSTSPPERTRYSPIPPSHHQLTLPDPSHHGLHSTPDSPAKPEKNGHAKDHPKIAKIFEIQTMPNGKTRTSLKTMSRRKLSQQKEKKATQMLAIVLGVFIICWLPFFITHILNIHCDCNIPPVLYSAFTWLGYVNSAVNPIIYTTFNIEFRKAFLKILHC
Summary of the method: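 Membranes from HEK293 EBNA cells transiently expressing human D2 were incubated 1 h at RT with ~0.7 nM [3H]-spiperone and ten compound concentrations (10 μM–0.1 nM) in Tris buffer with NaCl, MgCl2, KCl, CaCl2, EDTA, pH 7.4.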

[1] = membranes of HEK293 EBNA cells expressing human 5-HT2A, 1.1 nM [3H]-ketanserin

human 5-HT2A receptor, sequence (P28223 whole entry): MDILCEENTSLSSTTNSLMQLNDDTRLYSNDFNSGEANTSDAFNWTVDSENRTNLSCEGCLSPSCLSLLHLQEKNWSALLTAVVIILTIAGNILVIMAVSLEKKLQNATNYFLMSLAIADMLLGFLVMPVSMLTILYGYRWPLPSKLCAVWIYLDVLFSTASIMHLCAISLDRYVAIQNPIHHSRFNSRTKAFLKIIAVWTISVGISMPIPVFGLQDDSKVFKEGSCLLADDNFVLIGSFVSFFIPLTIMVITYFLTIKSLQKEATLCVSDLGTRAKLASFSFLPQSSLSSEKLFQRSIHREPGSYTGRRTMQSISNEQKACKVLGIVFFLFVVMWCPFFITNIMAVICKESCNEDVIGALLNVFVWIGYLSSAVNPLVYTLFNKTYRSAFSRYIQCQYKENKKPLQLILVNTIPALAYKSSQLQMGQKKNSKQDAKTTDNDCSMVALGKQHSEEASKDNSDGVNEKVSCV

Compound	Ki (human 5-HT2A receptor)	Ki (human D3 receptor)	Ki (human D2 receptor)	melting point	Ki (human 5-HT2A receptor; [1])
O=C(Cc1noc2ccccc12)N[C@H]1CC[C@H](CCN2CCN(c3nccc4c3CCO4)CC2)CC1 [Example 129, trans-2-Benzo[d] isoxazol-3-yl-N-(4-{2-[4-(2,3-dihydro-furo[3,2-c]pyridin-4-yl)-piperazin-1-yl]-ethyl}-cyclohexyl)-acetamide]	27.8 nM	14.9 nM	1310 nM	217.5 °C	–
O=C(N[C@H]1CC[C@H](CCN2CCN(c3nccc4c3CCO4)CC2)CC1)C(F)(F)F [Example 79, trans-N-(4-{2-[4-(2,3-Dihydro-furo[3,2-c]pyridin-4-yl)-piperazin-1-yl]-ethyl}-cyclohexyl)-2,2,2-trifluoro-acetamide]	–	47.3 nM	773 nM	213 °C	19.2 nM
COC(CC(=O)N[C@H]1CC[C@H](CCN2CCN(c3nccc4c3CCO4)CC2)CC1)OC [Example 113, trans-N-(4-{2-[4-(2,3-Dihydro-furo[3,2-c]pyridin-4-yl)-piperazin-1-yl]-ethyl}-cyclohexyl)-3,3-dimethoxy-propionamide]	–	19.3 nM	1380 nM	220 °C	15.7 nM
O=C(C[C@@H](O)C(F)(F)F)N[C@H]1CC[C@H](CCN2CCN(c3nccc4c3CCO4)CC2)CC1 [Example 88, trans-(R)—N-(4-{2-[4-(2,3-Dihydro-furo[3,2-c]pyridin-4-yl)-piperazin-1-yl]-ethyl}-cyclohexyl)-4,4,4-trifluoro-3-hydroxy-butyramide]	33.1 nM	19.7 nM	732 nM	207 °C	–
Cc1cnc(N2CCN(CC[C@H]3CC[C@H](NC(=O)CC4CCOCC4)CC3)CC2)c2ccoc12 [Example 106, trans-N-(4-{2-[4-(7-Methyl-furo[3,2-c]pyridin-4-yl)-piperazin-1-yl]-ethyl}-cyclohexyl)-2-(tetrahydro-pyran-4-yl)-acetamide]	–	38 nM	2720 nM	205.5 °C	11.7 nM
CN(C)C(=O)CCC(=O)N[C@H]1CC[C@H](CCN2CCN(c3nccc4c3CCO4)CC2)CC1 [Example 86, trans-N-(4-{2-[4-(2,3-Dihydro-furo[3,2-c]pyridin-4-yl)-piperazin-1-yl]-ethyl}-cyclohexyl)-N′,N′-dimethyl-succinamide]	–	37.6 nM	2560 nM	188 °C	23.9 nM
CC(C)(O)CC(=O)N[C@H]1CC[C@H](CCN2CCN(c3nccc4c3CCO4)CC2)CC1 [Example 87, trans-N-(4-{2-[4-(2,3-Dihydro-furo[3,2-c]pyridin-4-yl)-piperazin-1-yl]-ethyl}-cyclohexyl)-3-hydroxy-3-methyl-butyramide]	–	21.6 nM	1000 nM	208 °C	25 nM
CC[C@@H](O)CC(=O)N[C@H]1CC[C@H](CCN2CCN(c3nccc4c3CCO4)CC2)CC1 [Example 140, (R)-3-Hydroxy-pentanoic acid trans-(4-{2-[4-(2,3-dihydro-furo[3,2-c]pyridin-4-yl)-piperazin-1-yl]-ethyl}-cyclohexyl)-amide]	42 nM	44.4 nM	843 nM	161 °C	–
O=C(CC1CCC1)N[C@H]1CC[C@H](CCN2CCN(c3nccc4c3CCO4)CC2)CC1 [Example 73, trans-2-Cyclobutyl-N-(4-{2-[4-(2,3-dihydro-furo[3,2-c]pyridin-4-yl)-piperazin-1-yl]-ethyl}-cyclohexyl)-acetamide]	–	8.92 nM	603 nM	193 °C	13.3 nM
CC(C)CC(=O)N[C@H]1CC[C@H](CCN2CCN(c3nccc4c3CCO4)CC2)CC1 [Example 71, trans-N-(4-{2-[4-(2,3-Dihydro-furo[3,2-c]pyridin-4-yl)-piperazin-1-yl]-ethyl}-cyclohexyl)-3-methyl-butyramide]	–	10.9 nM	655 nM	202.5 °C	15.7 nM
O=C(N[C@H]1CC[C@H](CCN2CCN(c3nccc4c3CCO4)CC2)CC1)c1ccc(C(F)(F)F)cc1 [Example 47, trans-N-(4-{2-[4-(2,3-Dihydro-furo[3,2-c]pyridin-4-yl)-piperazin-1-yl]-ethyl}-cyclohexyl)-4-trifluoromethyl-benzamide]	–	57 nM	871 nM	227 °C	18.8 nM
CC(=O)N[C@H]1CC[C@H](CCN2CCN(c3ncc(C)c4c3CCO4)CC2)CC1 [Example 108, trans-N-(4-{2-[4-(7-Methyl-2,3-dihydro-furo[3,2-c]pyridin-4-yl)-piperazin-1-yl]-ethyl}-cyclohexyl)-acetamide]	–	48.2 nM	2310 nM	196.5 °C	67.5 nM
CC(C)(C)Oc1ccc(C(=O)N[C@H]2CC[C@H](CCN3CCN(c4nccc5c4CCO5)CC3)CC2)cc1 [Example 136, trans-4-tert-Butoxy-N-(4-{2-[4-(2,3-dihydro-furo[3,2-c]pyridin-4-yl)-piperazin-1-yl]-ethyl}-cyclohexyl)-benzamide]	–	69.5 nM	3160 nM	200 °C	41.4 nM
COCCC(=O)N[C@H]1CC[C@H](CCN2CCN(c3ncc(C)c4occc34)CC2)CC1 [Example 107, trans-3-Methoxy-N-(4-{2-[4-(7-methyl-furo[3,2-c]pyridin-4-yl)-piperazin-1-yl]-ethyl}-cyclohexyl)-propionamide]	–	30 nM	2470 nM	177 °C	12 nM
O=C(N[C@H]1CC[C@H](CCN2CCN(c3nccc4c3CCO4)CC2)CC1)c1ccc(F)cc1 [Example 45, trans-N-(4-{2-[4-(2,3-Dihydro-furo[3,2-c]pyridin-4-yl)-piperazin-1-yl]-ethyl}-cyclohexyl)-4-fluoro-benzamide]	11.1 nM	10.7 nM	342 nM	209.5 °C	–
CC(=O)N[C@H]1CC[C@H](CCN2CCN(c3nccc4c3CCO4)CC2)CC1 [Example 32, trans-N-(4-{2-[4-(2,3-Dihydro-furo[3,2-c]pyridin-4-yl)-piperazin-1-yl]-ethyl}-cyclohexyl)-acetamide]	–	12.7 nM	770 nM	260 °C	22.9 nM
CC(C)(C)CC(=O)N[C@H]1CC[C@H](CCN2CCN(c3nccc4c3CCO4)CC2)CC1 [Example 72, trans-N-(4-{2-[4-(2,3-Dihydro-furo[3,2-c]pyridin-4-yl)-piperazin-1-yl]-ethyl}-cyclohexyl)-3,3-dimethyl-butyramide]	–	17 nM	444 nM	192.5 °C	16.2 nM
O=C(C[C@H]1CCCO1)N[C@H]1CC[C@H](CCN2CCN(c3nccc4c3CCO4)CC2)CC1 [Example 68, trans-N-(4-{2-[4-(2,3-Dihydro-furo[3,2-c]pyridin-4-yl)-piperazin-1-yl]-ethyl}-cyclohexyl)-2-(R)-(tetrahydro-furan-2-yl)-acetamide]	14.6 nM	27.1 nM	915 nM	183 °C	–
O=C(CC1CCOCC1)N[C@H]1CC[C@H](CCN2CCN(c3nccc4c3CCO4)CC2)CC1 [Example 34, trans-N-(4-{2-[4-(2,3-Dihydrofuro[3,2-c]pyridin-4-yl)-piperazin-1-yl]-ethyl}-cyclohexyl)-2-(tetrahydro-2H-pyran-4-yl)-acetamide]	–	24.9 nM	869 nM	233 °C	20.1 nM
CCC(=O)N[C@H]1CC[C@H](CCN2CCN(c3nccc4c3CCO4)CC2)CC1 [Example 36, trans-N-(4-{2-[4-(2,3-Dihydrofuro[3,2-c]pyridin-4-yl)-piperazin-1-yl]-ethyl}-cyclohexyl)-propionamide]	–	9.7 nM	813 nM	192.5 °C	13.3 nM
O=S(=O)(N[C@H]1CC[C@H](CCN2CCN(c3nccc4c3CCO4)CC2)CC1)c1ccc(F)cc1 [Example 50, trans-N-(4-{2-[4-(2,3-Dihydro-furo[3,2-c]pyridin-4-yl)-piperazin-1-yl]-ethyl}-cyclohexyl)-4-fluoro-benzenesulfonamide]	–	6.72 nM	240 nM	221 °C	39.4 nM
Cc1cnc(N2CCN(CC[C@H]3CC[C@H](NC(=O)C4CCOCC4)CC3)CC2)c2ccoc12 [Example 105, trans-Tetrahydro-pyran-4-carboxylic acid (4-{2-[4-(7-methyl-furo[3,2-c]pyridin-4-yl)-piperazin-1-yl]-ethyl}-cyclohexyl)-amide]	5.67 nM	72.7 nM	1130 nM	228 °C	–
COCCC(=O)N[C@H]1CC[C@H](CCN2CCN(c3nc(C)cc4occc34)CC2)CC1 [Example 99, trans-3-Methoxy-N-(4-{2-[4-(6-methyl-furo[3,2-c]pyridin-4-yl)-piperazin-1-yl]-ethyl}-cyclohexyl)-propionamide]	–	4.8 nM	430 nM	158 °C	86.9 nM
C[C@]1(O)CC[C@@H](C(=O)N[C@H]2CC[C@H](CCN3CCN(c4nccc5c4CCO5)CC3)CC2)CC1 [Example 55, cis-4-Hydroxy-4-methyl-cyclohexanecarboxylic acid trans-(4-{2-[4-(2,3-dihydro-furo[3,2-c]pyridin-4-yl)-piperazin-1-yl]-ethyl}-cyclohexyl)-amide]	–	45.3 nM	475 nM	216.5 °C	6.14 nM
